Test system: anesthetized open-chest dogs
Experiment: Hemodynamics of anesthetized open-chest dogs, intravenous infusion
Format: in vivo, mongrel dogs
Details: 0.15 mg/kg iv
Method: The animals were anesthetized by intravenous injection of 30 mg/kg sodium pentobarbital, tracheally intubated, and mechanically ventilated with positive air pressure. Left thoracotomy was performed through the fourth intercostal space and the heart was suspended in a pericardial cradle, the aortic root was isolated and a probe of blood flow meter (12 or 14 mm in diameter) was fixed to measure the aortic blood flow as a representation of cardiac output (CO), the circumflex branch of left coronary artery was isolated and a probe of blood flow meter (2 or 2.5 mm in diameter) was fixed to measure the coronary blood flow (CBF). A polyethylene catheter filled with heparin physiological saline was inserted through cardiac apex into the left ventricle to measure the left ventricular pressure (LVP) and left ventricular end-diastolic pressure (LVEDP), Peak positive and peak negative first derivatives of the LVP (+ LVdp/dt and − LVdp/dt) were calculated with the Acknowledge software. The systolic blood pressure (SBP), diastolic blood pressure (DBP) and mean arterial pressure (MAP) were measured by polyethylene catheter via the femoral artery, ECG □ was measured by a AC-601G ECG amplifier. The above-mentioned analog signal was input into a data acquisition workstation (MP100, BIOPAC Systems, USA) to a computer running Acknowledge (version 3.7.1).
After surgery, various indexes before administration were recorded until the indexes were stable, and then intravenous infusion administration was conducted. Thirty dogs were divided into five groups (six dogs in each group), the experiment groups were given 0.15, 0.3, 0.6 mg/kg of ASP-[…] respectively, the normal control group was given 1 ml/kg of solvent, and the positive control group was given 0.3 mg/kg of astragaloside IV. The delivery volumes were 15 ml for each dog was and the delivery velocity was 1 ml/min. The indexes were recorded at 5, 10, 15, 20, 30, 45, 60, 90 and 120 mins after drug administration. At the end of experiment, the hearts were excised and weighted. The myocardial blood flow for per hectogram (CF), coronary resistance (CR), cardiac index (CI), left ventricular work (LVW) and total peripheral resistance (TPR) were calculated according to the following formulae: CF=CBF×[…]/heart weight CR=MAP/CF CI=CO/0.11×(body weight)^2/3 LVW=CO×(MAP−5)×1.052×0.0136 TPR=MAP×79.92/CO
Data are expressed as mean±SD ( x±s), the paired t-test was used to compare the significance between before and after administration, the unpaired t-test was adopted for comparison between groups.

For `CC(C)(O)[C@@H]1CC[C@](C)([C@H]2[C@@H](O)C[C@@]3(C)C4C[C@H](OC5OC(CO)C(O)C(O)C5O)C5C(C)(C)[C@@H](O)CC[C@@]56C[C@@]46CC[C@]23C)O1` (stereo partly drawn) [CMG, Cycloastragenol-6-O-β-D-glucoside], the LVEDP maximum decrease was 1.1±0.4 mmHg, the CF (5 min after administration) was 57 ± 21.7 ml/min/100 g and the “CF change vs before administration” value (5 min after administration) was “(−0.7 ± 3.6) ml/min/100 g”. The CI (5 min after administration) was 2.15 ± 0.65 L/min/m^2, the “CI change vs before administration” value (5 min after administration) was “(0.07 ± 0.16) L/min/m^2” and the CO (5 min after administration) was 1.24 ± 0.38 L/min. For the same compound, the “CO change vs before administration” value (5 min after administration) was “(0.04 ± 0.09) L/min”, the CR (5 min after administration) was 1.35 ± 0.42 mmHg/ml/min/100 g and the “CR change vs before administration” value (5 min after administration) was “(−0.01 ± 0.08) mmHg/ml/min/100 g”. For the same compound, the LVEDP (5 min after administration) was 1.0 ± 2.3 mmHg, the “LVEDP change vs before administration” value (5 min after administration) was “(−0.78 ± 0.61) mmHg” and the LVP (5 min after administration) was 105 ± 21 mmHg. The “LVP change vs before administration” value (5 min after administration) was “(0.1 ± 3.4) mmHg”, the LVW (5 min after administration) was 1.15 ± 0.43 kg · m and the “LVW change vs before administration” value (5 min after administration) was “(0.03 ± 0.17) kg · m”. The TPR (5 min after administration) was 4967 ± 2135 dyn · s/cm^5, the “TPR change vs before administration” value (5 min after administration) was “(−183 ± 313) dyn · s/cm^5” and the dp/dt (5 min after administration) was 1205 ± 417 mmHg/s. For the same compound, the “dp/dt change vs before administration” value (5 min after administration) was “(56 ± 94) mmHg/s”, the “−dp/dt” value (5 min after administration) was −865 ± 286 mmHg/s and the “−dp/dt change vs before administration” value (5 min after administration) was “(22 ± 65) mmHg/s”. The CF (10 min after administration) was 55.9 ± 21.6 ml/min/100 g, the “CF change vs before administration” value (10 min after administration) was “(−1.8 ± 5.0) ml/min/100 g” and the CI (10 min after administration) was 2.26 ± 0.55 L/min/m^2. For the same compound, the “CI change vs before administration” value (10 min after administration) was “(0.18 ± 0.20) L/min/m^2”, the CO (10 min after administration) was 1.31 ± 0.32 L/min and the “CO change vs before administration” value (10 min after administration) was “(0.10 ± 0.12) L/min”. For the same compound, the CR (10 min after administration) was 1.36 ± 0.42 mmHg/ml/min/100 g, the “CR change vs before administration” value (10 min after administration) was “(0.00 ± 0.11) mmHg/ml/min/100 g” and the LVEDP (10 min after administration) was 1.0 ± 2.3 mmHg. The “LVEDP change vs before administration” value (10 min after administration) was “(−0.73 ± 0.49) mmHg”, the LVP (10 min after administration) was 103 ± 22 mmHg and the “LVP change vs before administration” value (10 min after administration) was “(−1.5 ± 3.7) mmHg”. The LVW (10 min after administration) was 1.18 ± 0.34 kg · m, the “LVW change vs before administration” value (10 min after administration) was “(0.06 ± 0.19) kg · m” and the TPR (10 min after administration) was 4568 ± 1871 dyn · s/cm^5. The “TPR change vs before administration” value (10 min after administration) was “(−582 ± 652) dyn · s/cm^5”, the dp/dt (10 min after administration) was 1173 ± 407 mmHg/s and the “dp/dt change vs before administration” value (10 min after administration) was “(23 ± 110) mmHg/s”. The “−dp/dt” value (10 min after administration) was −883 ± 288 mmHg/s, the “−dp/dt change vs before administration” value (10 min after administration) was “(5 ± 36) mmHg/s” and the CF (15 min after administration) was 55.9 ± 22.2 ml/min/100 g. For the same compound, the “CF change vs before administration” value (15 min after administration) was “(−1.8 ± 5.8) ml/min/100 g”, the CI (15 min after administration) was 2.09 ± 0.45 L/min/m^2 and the “CI change vs before administration” value (15 min after administration) was “(0.01 ± 0.24) L/min/m^2”. For the same compound, the CO (15 min after administration) was 1.21 ± 0.26 L/min, the “CO change vs before administration” value (15 min after administration) was “(0.00 ± 0.15) L/min” and the CR (15 min after administration) was 1.32 ± 0.38 mmHg/ml/min/100 g. The “CR change vs before administration” value (15 min after administration) was “(−0.03 ± 0.14) mmHg/ml/min/100 g”, the LVEDP (15 min after administration) was 1.0 ± 2.3 mmHg and the “LVEDP change vs before administration” value (15 min after administration) was “(−0.73 ± 0.60) mmHg”. For the same compound, the LVP (15 min after administration) was 103 ± 25 mmHg, the “LVP change vs before administration” value (15 min after administration) was “(−2.0 ± 4.7) mmHg” and the LVW (15 min after administration) was 1.08 ± 0.31 kg · m. The “LVW change vs before administration” value (15 min after administration) was “(−0.04 ± 0.19) kg · m”, the TPR (15 min after administration) was 4612 ± 1333 dyn · s/cm^5 and the “TPR change vs before administration” value (15 min after administration) was “(−538 ± 1075) dyn · s/cm^5”. The dp/dt (15 min after administration) was 1170 ± 449 mmHg/s, the “dp/dt change vs before administration” value (15 min after administration) was “(20 ± 113) mmHg/s” and the “−dp/dt” value (15 min after administration) was −875 ± 288 mmHg/s. For the same compound, the “−dp/dt change vs before administration” value (15 min after administration) was “(13 ± 49) mmHg/s”, the CF (20 min after administration) was 54.3 ± 20.4 ml/min/100 g and the “CF change vs before administration” value (20 min after administration) was “(−3.4 ± 4.4) ml/min/100 g”. The CI (20 min after administration) was 2.05 ± 0.45 L/min/m^2, the “CI change vs before administration” value (20 min after administration) was “(−0.03 ± 0.26) L/min/m^2” and the CO (20 min after administration) was 1.19 ± 0.27 L/min. For the same compound, the “CO change vs before administration” value (20 min after administration) was “(−0.02 ± 0.15) L/min”, the CR (20 min after administration) was 1.35 ± 0.39 mmHg/ml/min/100 g and the “CR change vs before administration” value (20 min after administration) was “(0.00 ± 0.13) mmHg/ml/min/100 g”. The LVEDP (20 min after administration) was 1.2 ± 2.4 mmHg, the “LVEDP change vs before administration” value (20 min after administration) was “(−0.62 ± 0.47) mmHg” and the LVP (20 min after administration) was 101 ± 21 mmHg. For the same compound, the “LVP change vs before administration” value (20 min after administration) was “(−3.8 ± 5.1) mmHg”.

Reference: patent US8835134B2, “Cycloastragenol monoglucoside, preparation, pharmaceutical composition and application thereof” (Tianjin Institute of Pharmaceutical Research, priority 2007, dated 2014)
